The results in this text go back to EP0618222A2, “Dipeptid derivatives of 5-amino-4-hydroxy-hexanoic acid” (CIBA-GEIGY AG, priority 1993, dated 1994).

The nature of series [1]: Blood level in mice after administration (HPLC of blood/plasma). In kind it is in vivo, Mäuse. To be noted: po; mouse blood, peroral 120 mg/kg, 30 min after administration; read-out: Konzentration. The method, then: Die pharmakodynamischen Eigenschaften der Verbindungen der Formel können beispielsweise wie folgt belegt werden: • Die zu untersuchenden Verbindungen der Formel oder (beispielsweise als Kontrolle) die entsprechende Verbindung der Formel werden in einem organischen Lösungsmittel, wie Dimethylsulfoxid (DMSO), in einer Konzentration von 240 mg/ml gelöst. Die resultierenden Lösungen werden mit 20% (w/v) Hydroxypropyl-ßcyclodextrin (HPßCD) verdünnt, um eine Konzentration der Testsubstanz von 12 mg/ml zu erhalten. Diese Lösung wird Mäusen oral durch künstliche Sonderernährung in einer Dosis von 120 mg/kg verabreicht. 30, 60, 90 und 120 min nach der Verabreichung werden die Tiere getötet und Blut entnommen. Pro Zeitpunkt werden drei bis vier Tiere untersucht. Das Blut wird heparinisiert und für die Analyse durch eine der folgenden beiden Methoden vorbereitet: Nach der ersten Methode wird Vollblut deproteinisiert durch Mischen eines Volumenteils Blut mit einem Volumenteil Acetonitril; nach Zentrifugation (10 000 g, 5 min) wird der Überstand durch Reversed-Phase-HPLC untersucht. Nach der zweiten Methode werden 2 µl einer 1 mM Lösung eines internen Standards (wie einer anderen Verbindung der Formel I) zu 0,5 ml heparinisiertem Blut zugegeben. Das Blut wird zentrifugiert (10 000 g, 5 min), und das Plasma mit demselben Volumen Acetonitril vermischt. […]

For series [2], the system named is HIV-1. As to the kind of experiment: Protection of MT-2 cells against HIV-1 infection (reverse transcriptase activity in supernatant). Type of series: cell-based. To be noted: Human immunodeficiency virus 1, MT2, 96 h; lowest concentration lowering RT activity by 90 %; MT-2 cells with HIV-1, 4 days incubation; read-out: ED90 (the source's name). From the text:
In einem weiteren Test kann gezeigt werden, dass die Verbindungen der vorliegenden Erfindung Zellen, die normalerweise von HIV infiziert werden, vor einer solchen Infektion schützen oder zumindest eine solche Infektion verlangsamen. Dabei wird die menschliche T-Zell-Leukämie Zellinie MT-2 (Science 229, 563 (1985)), die empfindlich gegen den zytopathogenen Effekt von HIV ist, mit HIV-1 allein oder mit HIV-1 in Gegenwart einer der erfindungsgemässen Verbindungen inkubiert und nach einigen Tagen die Lebensfähigkeit der so behandelten Zellen beurteilt. Hierzu werden die MT-2-Zellen in RPMI 1640-Medium (Gibco, Schweiz; RPMI 1640 enthält ein Aminosäurengemisch ohne L-Gln), das mit 10% hitzeinaktiviertem fetalem Kälberserum, L-Glutamin, Hepes (2-[4-(2-Hydroxyethyl)-1-piperazino]-ethansulfonsäure) und Standardantibiotika supplementiert ist, bei 37 °C in befeuchteter Luft mit 5% CO2 gehalten. 50 µl der jeweiligen Testverbindung in Kulturmedium und 100 µl HIV-1 in Kulturmedium (800 TCID50/ml) (TCID50 = Tissue Culture Infectious Dose 50 = Dosis, die 50% der MT-2-Zellen infiziert) werden zu 4x1 0^3 exponentiell wachsenden MT-2-Zellen in 50 µl Kulturmedium pro Vertiefung auf 96-Loch-Mikrotiterplatten gegeben. Parallele Ansätze auf einerweiteren Mikrotiterplatte mit Zellen und Testverbindung erhalten 100 µl Kulturmedium ohne Virus. […]

As to `COc1ccc(C[C@H](C[C@H](O)[C@H](Cc2ccccc2)NC(=O)OC(C)(C)C)C(=O)N[C@H](C(=O)N[C@@H](Cc2ccccc2)C(=O)N2CCOCC2)C(C)C)cc1` [5(S)-(tert-Butoxycarbonylamino)-4(S)-hydroxy-2(R)-(p-methoxy-phenylmethyl)-6-phenyl-hexanoyl-(L)-valyl-(L)-phenyl-alanyl-morpholin-4-ylamid], the concentration at 0.5 h in series [1] amounted to 10.8 µM. The EC90 in series [2] was found to be 100 nM.
